According to patent US9907797B2, “Combination therapies for overcoming resistance to mitotic agents during chemotherapy” (EMORY UNIVERSITY, priority 2014, dated 2018):

Key:
PARP1 = PARP1 (Homo sapiens, UniProt P09874); assay: In vitro parylation studies; format: biochemical
CHFR-PARP1 interaction = assay: Glutathione affinity purification of Ring-domain deleted ΔR-CHFR and PARP1 in HEK293 cells; format: cell-based; settings: increasing concentrations, 16 hours, ΔR-CHFR construct
Description: (§1) HEK293 cells were stably transfected with the pDEST27-AR-CHFR construct. Deletion of the RING domain in this construct leads to both stable CHFR and PARP1 expression that is unaltered by treatment with increasing concentrations of ‘A3’ for 16 hours. Nonetheless, the interaction between glutathione-affinity purified CHFR-ΔR and PARP1 was decreased by ‘A3’ in a dose dependent fashion. A549 cells were incubated for 16.5 hrs with MG132 and indicated A3 concentration for 16 hrs. At 10 uM A3 concentration CHFR staining is diminished in the nucleus Cells are stained with CHFR.
(§2) In an attempt to generate possible lead compounds for the pharmacologic inhibition of the CHFR-PARP1 interaction, a high throughput computational screen of 5,256,508 chemical structures in the MCULE database of purchasable compounds using the AutoDockVina algorithm against the published crystal structure of the CHFR-PBZ domain was performed. The 10 most promising ‘hits’ based on Autodock Vina docking scores (<−9.7) were selected for further characterization. Commercially available compounds were tested for their impact on nuclear CHFR levels (FIG. 3A). […] The impact of the above referenced compounds on the PARP1/CHFR interaction were evaluated. HEK293 cells were transfected with GST tagged PARP1 and the interaction with CHFR determined in pull down assays for those 4 compounds. […]

A549 cells = assay: Colony formation assays in A549 cells transfected with shRNA; format: cell-based
Description: Various cell lines of different tissues of origin and with different CHFR expression status were exposed to 1 hour of docetaxel and 72 hours of ‘A3’. Effects were defined as 1−colony count (treatment)/colony count (control). The nature of the interaction between the two compounds was analyzed by the Bliss additivity method. […] For subsequent colony formation assays, cell lines were characterized into CHFR expressing vs. CHFR deficient cell lines by Western-Blot.
FIG. 4D knock-down of either CHFR or PARP1 in A549 cells alleviates the synergy that is observed in A549 cells transfected with scrambled shRNA. (*=synergy)
Finally, colony formation assays were performed on a panel of cell lines of different cancer types such as lung-, breast-, and colon cancer.

[1] = Pharmacokinetics, plasma concentrations by LC/MS/MS; format: in vivo; settings: CD1 mice
Description: The in vivo properties of ‘A3’ were evaluated. The pharmacokinetics of ‘A3’ after a single oral (25 mg/kg) and intravenous (10 mg/kg) dose of in CD1 mice were determined. Plasma was obtained at pre-specified time points (15 min to 24 hours) and ‘A3’ concentrations were determined by LC/MS/MS. […] Oral bioavailability of ‘A3’ was insignificant. The time-point of maximal CHFR suppression at 4 hrs follow the peak in A3 plasma levels with some delay.

[2] = Toxicity in treated xenograft mice; format: in vivo; settings: combination treatment with A3 and docetaxel, 10 days after treatment
CHFR [3] = target: T1, CHFR (Homo sapiens, UniProt Q96EP1); assay: CHFR levels by western blotting of whole cell extracts; format: cell-based; design: endogenous in cells; host or cells: A549; settings: 10 uM, 24 hours, A549 cells
T1 sequence (Q96EP1 1-664): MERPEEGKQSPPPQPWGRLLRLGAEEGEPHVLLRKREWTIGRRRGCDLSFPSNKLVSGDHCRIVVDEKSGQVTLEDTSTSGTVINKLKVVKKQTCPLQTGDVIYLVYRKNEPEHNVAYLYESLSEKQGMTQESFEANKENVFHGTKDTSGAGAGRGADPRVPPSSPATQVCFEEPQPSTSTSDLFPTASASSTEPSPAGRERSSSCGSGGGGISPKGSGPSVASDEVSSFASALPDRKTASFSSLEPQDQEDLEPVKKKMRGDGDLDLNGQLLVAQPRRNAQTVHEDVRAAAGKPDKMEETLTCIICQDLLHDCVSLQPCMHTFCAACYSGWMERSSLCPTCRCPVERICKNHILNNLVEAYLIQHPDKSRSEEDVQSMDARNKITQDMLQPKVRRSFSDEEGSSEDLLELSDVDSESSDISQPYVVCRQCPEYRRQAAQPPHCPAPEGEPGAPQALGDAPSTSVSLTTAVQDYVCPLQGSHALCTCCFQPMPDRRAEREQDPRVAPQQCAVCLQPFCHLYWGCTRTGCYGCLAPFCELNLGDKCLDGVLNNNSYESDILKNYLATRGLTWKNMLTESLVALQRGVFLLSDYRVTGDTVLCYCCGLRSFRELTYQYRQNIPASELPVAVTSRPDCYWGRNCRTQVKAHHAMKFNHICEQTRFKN
Description: The 10 compounds with the highest docking scores were tested for their ability to regulate CHFR expression levels.
In an attempt to generate possible lead compounds for the pharmacologic inhibition of the CHFR-PARP1 interaction, a high throughput computational screen of 5,256,508 chemical structures in the MCULE database of purchasable compounds using the AutoDockVina algorithm against the published crystal structure of the CHFR-PBZ domain was performed. The 10 most promising ‘hits’ based on Autodock Vina docking scores (<−9.7) were selected for further characterization. Commercially available compounds were tested for their impact on nuclear CHFR levels (FIG. 3A). Several compounds, including ‘A2’, ‘A3’, ‘A4’ and ‘A6’ decreased CHFR levels assayed by western blotting of whole cell extracts. The impact of the above referenced compounds on the PARP1/CHFR interaction were evaluated. HEK293 cells were transfected with GST tagged PARP1 and the interaction with CHFR determined in pull down assays for those 4 compounds. […] In contrast to treatment with ABT-888, ‘A3’ completely disrupted the interaction between GST-tagged PARP-1 and CHFR (FIG. 3B). […]

CHFR [4] = target: T1, CHFR; assay: Nuclear localization of CHFR (staining) in A549 cells with MG-132; format: cell-based; design: endogenous in cells; host or cells: A549; settings: A3 in combination with MG-132, A549 cells
Description: as §1, §2

CHFR [5] = target: T1, CHFR; assay: CHFR immunohistochemistry in A549 tumor xenografts; format: in vivo, nude mice; design: endogenous in cells; host or cells: A549 cells grown as flank xenografts in nude mice; settings: single ip injection 10 mg/kg
Description: 4 hrs after i.p. injection a significant reduction in nuclear CHFR staining was observed, indicating an in vivo reproducible pharmacodynamic effect of ‘A3’.
‘A3’ is capable of disrupting the interaction between CHFR and PARP1 in vitro, leading to a depletion of CHFR expression and to sensitization towards the cytotoxic effects of taxanes. The impact of ‘A3’ administration on lung tumor xenografts was evaluated. A549 NSCLC cells were injected into the flank of nude mice and allowed to establish for approximately 14 days. Once tumors had reached a volume about 100 mm3, mice received a single ip injection of ‘A3’ at 10 mg/kg. Mice were then euthanized at 1, 2, 4 and 24 hours after and CHFR in the xenografts was analyzed by immunohistochemistry (FIG. 5A).

Chain of PARP1 (P09874 whole entry, species assumed): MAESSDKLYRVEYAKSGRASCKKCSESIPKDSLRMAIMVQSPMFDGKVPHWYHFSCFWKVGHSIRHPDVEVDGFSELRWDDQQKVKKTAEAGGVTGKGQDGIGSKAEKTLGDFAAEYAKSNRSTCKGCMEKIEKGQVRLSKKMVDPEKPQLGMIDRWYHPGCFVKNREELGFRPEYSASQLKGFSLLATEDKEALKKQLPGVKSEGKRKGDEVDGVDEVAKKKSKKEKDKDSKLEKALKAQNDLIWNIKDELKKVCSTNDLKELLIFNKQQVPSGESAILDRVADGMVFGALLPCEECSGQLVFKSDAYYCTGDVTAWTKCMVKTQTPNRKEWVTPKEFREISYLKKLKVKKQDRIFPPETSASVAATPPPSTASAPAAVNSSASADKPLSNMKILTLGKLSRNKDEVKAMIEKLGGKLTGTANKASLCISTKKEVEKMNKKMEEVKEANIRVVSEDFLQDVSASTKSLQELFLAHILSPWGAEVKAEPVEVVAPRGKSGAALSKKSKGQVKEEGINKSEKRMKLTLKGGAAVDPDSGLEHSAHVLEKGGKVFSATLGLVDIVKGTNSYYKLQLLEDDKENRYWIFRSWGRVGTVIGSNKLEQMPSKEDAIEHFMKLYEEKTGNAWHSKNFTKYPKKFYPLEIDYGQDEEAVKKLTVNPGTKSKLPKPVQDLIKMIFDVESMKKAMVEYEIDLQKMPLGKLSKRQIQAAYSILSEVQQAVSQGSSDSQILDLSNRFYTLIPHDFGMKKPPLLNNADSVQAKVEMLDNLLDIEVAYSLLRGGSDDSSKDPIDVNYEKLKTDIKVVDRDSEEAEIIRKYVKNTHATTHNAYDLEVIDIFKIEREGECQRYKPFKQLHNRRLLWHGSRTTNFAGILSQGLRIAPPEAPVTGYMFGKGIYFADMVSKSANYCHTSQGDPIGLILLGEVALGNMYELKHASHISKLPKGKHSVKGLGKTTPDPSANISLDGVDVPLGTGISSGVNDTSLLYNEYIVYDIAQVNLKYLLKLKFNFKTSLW

Cc1ccc(N2C(=O)NC(=O)C(=Cc3cn(Cc4ccccc4)c4ccccc34)C2=O)cc1C [A3, 5-((1-benzyl-1H-indol-3-yl)methylene)-1-(3,4-dimethylphenyl)pyrimidine-2,4,6(1H,3H,5H)-trione]
PARP1 auto-parylation (PARP1): no impact on PARP1 auto-parylation
interaction between CHFR-ΔR and PARP1 (CHFR-PARP1 interaction): dose dependent inhibition of the interaction between CHFR and PARP1
synergy between A3 and docetaxel, colony formation (A549 cells; A549 after CHFR or PARP1 knockdown): not after CHFR or PARP1 knockdown
synergy between A3 and docetaxel, colony formation (A549 cells; A549 scrambled shRNA): Synergy between A3 and docetaxel was maintained only in the A549 scramble cell line
distribution ([1]; following intravenous dosing 10 mg/kg): rapidly and widely distributed
relative bioavailability from dose normalized AUC values ([1]; single oral (25 mg/kg) and intravenous (10 mg/kg) dose): 19.5%
Oral bioavailability ([1]; single oral dose 25 mg/kg): insignificant
hematologic, hepatic and renal toxicity [2]: not associated with a significant increase in hematologic, hepatic and renal toxicity
CHFR expression (CHFR [3]): reduced CHFR expression
nuclear localization of CHFR (CHFR [4]): depletion of nuclear CHFR and accumulation of cytoplasmic CHFR
nuclear CHFR expression in xenografts (CHFR [5]; 24 hr time point): restored to baseline levels
nuclear CHFR expression in xenografts (CHFR [5]; after 4 hours): Significant suppression of nuclear CHFR expression
